In ChEMBL document CHEMBL2406940, “Reactive oxygen species production by quercetin causes the death of Leishmania amazonensis intracellular amastigotes” (J Nat Prod, 2013):
Activity calls are given as the source filed them. The calls are words filed in the database; no cut-off is given here.

Assays:
Leishmania amazonensis [1] = assay: Antileishmanial activity against Leishmania amazonensis after 72 hrs; type: functional, organism-based
[2] = tested on: Peritoneal macrophage cell; assay: Induction of intracellular […] production in promastigotes of Leishmania amazonensis MHOM/BR/75/LTB0016 infected Swiss mouse peritoneal macrophages at 12 uM after 72 hrs by spectrofluorometric analysis relative to control; type: functional
Leishmania amazonensis [3] = assay: Antileishmanial activity against promastigotes of Leishmania amazonensis MHOM/BR/75/LTB0016 infected in Swiss mouse peritoneal macrophages assessed as parasite growth inhibition at 12 uM after 72 hrs; type: functional; conditions: MHOM/BR/75/LTB0016, 72 h, read-out: GI
[4] = Selectivity index, ratio of IC50 for Swiss mouse peritoneal macrophages to IC50 for promastigotes of Leishmania amazonensis MHOM/BR/75/LTB0016
Leishmania amazonensis [5] = assay: Antileishmanial activity against promastigotes of Leishmania amazonensis MHOM/BR/75/LTB0016 infected in Swiss mouse peritoneal macrophages assessed as reduction of infection index after 72 hrs; type: functional, organism-based
[6] = tested on: Peritoneal macrophage cell; assay: Induction of intracellular […] production in promastigotes of Leishmania amazonensis MHOM/BR/75/LTB0016 infected Swiss mouse peritoneal macrophages after 72 hrs by spectrofluorometric analysis; type: functional, cell-based
[7] = tested on: Peritoneal macrophage cell; assay: Induction of intracellular […] production in Swiss mouse peritoneal macrophages up to 12 uM after 72 hrs by spectrofluorometric analysis; type: functional, cell-based
[8] = Cytotoxicity against Swiss mouse peritoneal macrophages after 72 hrs by AlamarBlue assay; type: cell-based; conditions: Peritoneal macrophage cell

| SMILES | IC50 (Leishmania amazonensis [1]) [µM] | fold change (FC) [2] | inhibition of growth at 12 µM (Leishmania amazonensis [3]) [%] | Ratio IC50 [4] | inhibition (Leishmania amazonensis [5]) | IC50 (Leishmania amazonensis [5]; MHOM/BR/75/LTB0016, 72 h) [µM] | Activity [6] | Activity [7] | IC50 [8] [µM] |
| --- | --- | --- | --- | --- | --- | --- | --- | --- | --- |
| CCCCCCCCCCCCCCCCOP(=O)([O-])OCC[N+](C)(C)C [MILTEFOSINE] | 3.2 |  |  |  |  |  |  |  |  |
| O=c1c(O)c(-c2ccc(O)c(O)c2)oc2cc(O)cc(O)c12 [QUERCETIN] |  | 1.5 | 74.8 | 16.8 | Dose-dependent effect | 3.4 | Dose-dependent effect | inactive | 80.2 |
